This note sets out measurements from patent US20120109286A1, “ANTIMICROBIAL COATINGS” (priority 2009, published 2012).

Common to all, as to settings: 24 h at 37° C.
One assay relates to S. aureus. Put plainly: Zone of inhibition around monomer pellets or powder. The assay is classed as cell-based, Staphylococcus aureus. From the text:
(§1) ZSB powder was used to show antimicrobial efficacy.

In another assay the test system is P. aeruginosa. Put plainly: Zone of inhibition around monomer pellets. The class given is cell-based, Pseudomonas aeruginosa.
Another assay concerns M. luteus. As to the kind of experiment: Zone of inhibition around monomer pellets or powder. The class given is cell-based, Micrococcus luteus.
Excerpt: as §1

For the compound `O=C1C=CC(=O)[N]1[Ag]([P+](c1ccccc1)(c1ccccc1)c1ccccc1)[P+](c1ccccc1)(c1ccccc1)c1ccccc1` [PSSM, Phosphine Stabilised Silver Maleimide], the results for the zone of inhibition entry in the assay on S. aureus, with P. aeruginosa and in the assay with M. luteus were “sharp ring of inhibition”, “more blurred inhibition zones” and “sharp ring of inhibition”, respectively.
